These results are taken from publication PMC5218480 (PLoS ONE, 2017).

The structures appear in SMILES notation.

The test relates to MV-4-11 cells. Briefly: Gene expression microarray analysis (Affymetrix PrimeView) and GSEA. The class given is cell-based, human. Also on record: RFU PODN (11730768_x_at) / Fold change /veh PODN (11730768_x_at) / RFU LINC00158 (11744669_a_at) / Fold change /veh LINC00158 (11744669_a_at) / RFU DUSP10 (11751237_a_at) / Fold change /veh DUSP10 (11751237_a_at) / RFU ID3 (11757404_x_at) / Fold change /veh ID3 (11757404_x_at) / RFU PLEKHG5 (11737974_s_at) / Fold change /veh PLEKHG5 (11737974_s_at) / RFU LRRC4B (11730491_at) / Fold change /veh LRRC4B (11730491_at) / RFU GIMAP4 (11747438_a_at) / Fold change /veh GIMAP4 (11747438_a_at) / RFU KRT8 (11758183_x_at) / Fold change /veh KRT8 (11758183_x_at) / RFU CNN1 (11734310_a_at) / Fold change /veh CNN1 (11734310_a_at) / RFU VPS37D (11726825_at) / Fold change /veh VPS37D (11726825_at) / RFU C10orf10 (11716522_x_at) / Fold change /veh C10orf10 (11716522_x_at) / RFU KIR2DL2 /// KIR2DL4 /// KIR2DL5A /// KIR2DL5B /// KIR2DS1 /// KIR2DS2 /// KIR2DS3 /// KIR2DS4 /// KIR3DL3 /// KIR3DL3 /// KIR3DS1 (11738374_at) / Fold change /veh KIR2DL2 /// KIR2DL4 /// KIR2DL5A /// KIR2DL5B /// KIR2DS1 /// KIR2DS2 /// KIR2DS3 /// KIR2DS4 /// KIR3DL3 /// KIR3DL3 /// KIR3DS1 (11738374_at) / RFU C1QL1 (11718748_at) / Fold change /veh C1QL1 (11718748_at) / RFU TMPRSS4 (11747572_a_at) / Fold change /veh TMPRSS4 (11747572_a_at) / RFU HAMP (11756126_x_at) / Fold change /veh HAMP (11756126_x_at) / RFU RNFT2 (11725882_a_at) / Fold change /veh RNFT2 (11725882_a_at) / RFU NR4A2 (11747474_a_at) / Fold change /veh NR4A2 (11747474_a_at) / RFU ABCC12 (11746883_a_at) / Fold change /veh ABCC12 (11746883_a_at) / RFU TMEM136 (11760407_x_at) / Fold change /veh TMEM136 (11760407_x_at) / RFU CLDN22 /// WWC2 (11732394_at) / Fold change /veh CLDN22 /// WWC2 (11732394_at) / RFU HLA-DPB1 (11760878_x_at) / Fold change /veh HLA-DPB1 (11760878_x_at) / RFU SPINT1 (11716480_a_at) / Fold change /veh SPINT1 (11716480_a_at) / RFU GAP43 (11754022_s_at) / Fold change /veh GAP43 (11754022_s_at) / RFU A4GNT (11735810_at) / Fold change /veh A4GNT (11735810_at) / RFU PRB3 (11715151_x_at) / Fold change /veh PRB3 (11715151_x_at) / RFU TUBB4B (11761932_at) / Fold change /veh TUBB4B (11761932_at) / RFU CAPN14 (11732068_a_at) / Fold change /veh CAPN14 (11732068_a_at) / RFU TMCC2 (11721928_a_at) / Fold change /veh TMCC2 (11721928_a_at) / RFU IRGQ (11745062_a_at) / Fold change /veh IRGQ (11745062_a_at) / RFU FAM174B (11720279_a_at) / Fold change /veh FAM174B (11720279_a_at) / RFU TMPRSS4 (11748680_a_at) / Fold change /veh TMPRSS4 (11748680_a_at) / RFU FAM212B (11763350_a_at) / Fold change /veh FAM212B (11763350_a_at) / RFU PLEKHG5 (11743358_a_at) / Fold change /veh PLEKHG5 (11743358_a_at) / RFU ZSCAN30 (11745921_a_at) / Fold change /veh ZSCAN30 (11745921_a_at) / RFU CMKLR1 (11741424_a_at) / Fold change /veh CMKLR1 (11741424_a_at) / RFU LOC101060620 /// MAPK8IP1 (11723275_at) / Fold change /veh LOC101060620 /// MAPK8IP1 (11723275_at) / RFU SPTSSB (11747773_x_at) / Fold change /veh SPTSSB (11747773_x_at) / RFU PRSS12 (11739890_at) / Fold change /veh PRSS12 (11739890_at) / RFU BIN1 (11741810_x_at) / Fold change /veh BIN1 (11741810_x_at) / RFU WNT11 (11732464_a_at) / Fold change /veh WNT11 (11732464_a_at) / RFU C10orf10 (11716521_a_at) / Fold change /veh C10orf10 (11716521_a_at) / RFU C5orf56 (11738089_at) / Fold change /veh C5orf56 (11738089_at) / RFU CYB561 (11721691_x_at) / Fold change /veh CYB561 (11721691_x_at) / RFU ANKRD19P (11752326_a_at) / Fold change /veh ANKRD19P (11752326_a_at) / RFU OR2T12 /// OR2T33 /// OR2T8 (11738714_s_at) / Fold change /veh OR2T12 /// OR2T33 /// OR2T8 (11738714_s_at) / RFU VCAN (11748164_a_at) / Fold change /veh VCAN (11748164_a_at) / RFU JSRP1 (11732532_at) / Fold change /veh JSRP1 (11732532_at) / RFU KRTAP10-11 (11738290_x_at) / Fold change /veh KRTAP10-11 (11738290_x_at) / RFU MYO3A (11730013_a_at) / Fold change /veh MYO3A (11730013_a_at) / RFU EBF3 (11725865_a_at) / Fold change /veh EBF3 (11725865_a_at) / RFU CAMK2N1 (11719241_x_at) / Fold change /veh CAMK2N1 (11719241_x_at) / RFU C5orf56 (11738088_a_at) / Fold change /veh C5orf56 (11738088_a_at) / RFU OLFML3 (11715873_a_at) / Fold change /veh OLFML3 (11715873_a_at) / RFU LOC100653217 /// NTM (11731650_a_at) / Fold change /veh LOC100653217 /// NTM (11731650_a_at) / RFU MAPK11 (11762145_a_at) / Fold change /veh MAPK11 (11762145_a_at) / RFU FIZ1 (11724087_x_at) / Fold change /veh FIZ1 (11724087_x_at) / RFU OASL (11726364_x_at) / Fold change /veh OASL (11726364_x_at) / RFU SOX15 (11748057_x_at) / Fold change /veh SOX15 (11748057_x_at) / RFU CD79A (11719716_a_at) / Fold change /veh CD79A (11719716_a_at) / RFU HIST1H1D (11736915_at) / Fold change /veh HIST1H1D (11736915_at) / RFU CASKIN2 (11723855_a_at) / Fold change /veh CASKIN2 (11723855_a_at) / RFU LOC730098 (11760151_x_at) / Fold change /veh LOC730098 (11760151_x_at) / RFU OR4N2 (11742367_at) / Fold change /veh OR4N2 (11742367_at) / RFU PRRT2 (11749266_a_at) / Fold change /veh PRRT2 (11749266_a_at) / RFU SNX32 (11753110_a_at) / Fold change /veh SNX32 (11753110_a_at) / RFU CDHR5 (11726645_a_at) / Fold change /veh CDHR5 (11726645_a_at) / RFU RCAN1 (11760418_a_at) / Fold change /veh RCAN1 (11760418_a_at) / RFU FAM167A (11723789_a_at) / Fold change /veh FAM167A (11723789_a_at) / RFU FAM26E (11764081_at) / Fold change /veh FAM26E (11764081_at) / RFU ISYNA1 (11749810_s_at) / Fold change /veh ISYNA1 (11749810_s_at) / RFU ACY1 (11761880_at) / Fold change /veh ACY1 (11761880_at) / RFU 11764098_at / Fold change /veh 11764098_at / RFU SAMD14 (11745864_x_at) / Fold change /veh SAMD14 (11745864_x_at) / RFU NPB (11741838_a_at) / Fold change /veh NPB (11741838_a_at) / RFU TMPRSS6 (11731388_a_at) / Fold change /veh TMPRSS6 (11731388_a_at) / RFU KRTAP10-2 (11738614_at) / Fold change /veh KRTAP10-2 (11738614_at) / RFU ARHGAP8 /// PRR5-ARHGAP8 (11727945_x_at) / Fold change /veh ARHGAP8 /// PRR5-ARHGAP8 (11727945_x_at) / RFU KRTAP5-7 /// NADSYN1 (11734609_at) / Fold change /veh KRTAP5-7 /// NADSYN1 (11734609_at) / RFU RASL12 (11751679_a_at) / Fold change /veh RASL12 (11751679_a_at) / RFU CDKN2B (11736163_a_at) / Fold change /veh CDKN2B (11736163_a_at) / RFU PRF1 (11729649_at) / Fold change /veh PRF1 (11729649_at) / RFU, ZNF638 /// ZNF638-IT1 / Fold change vs veh, ZNF638 /// ZNF638-IT1 / RFU, PANK3 / Fold change vs veh, PANK3 / RFU, SH3YL1 / Fold change vs veh, SH3YL1 / RFU, ZEB2 / Fold change vs veh, ZEB2 / RFU, NRIP1 / Fold change vs veh, NRIP1 / RFU, PTTG1IP / Fold change vs veh, PTTG1IP / RFU, CAPN2 / Fold change vs veh, CAPN2 / RFU, MED14 / Fold change vs veh, MED14 / RFU, SNORA58 / Fold change vs veh, SNORA58 / RFU, C1orf63 / Fold change vs veh, C1orf63 / RFU, LRRFIP1 / Fold change vs veh, LRRFIP1 / RFU, NDUFAF7 / Fold change vs veh, NDUFAF7 / RFU, SLC12A2 / Fold change vs veh, SLC12A2 / RFU, IBTK / Fold change vs veh, IBTK / RFU, ESF1 / Fold change vs veh, ESF1 / Fold change vs veh, TMEM50B / RFU, TAOK1 / Fold change vs veh, TAOK1 / RFU, ACBD3 / Fold change vs veh, ACBD3 / RFU, TMA16 / Fold change vs veh, TMA16 / RFU, RWDD3 / Fold change vs veh, RWDD3 / RFU, BCAT1 / Fold change vs veh, BCAT1 / RFU, EDEM3 / Fold change vs veh, EDEM3 / RFU, TMEM33 / Fold change vs veh, TMEM33 / RFU, WDR75 / Fold change vs veh, WDR75 / RFU, AHCTF1 / Fold change vs veh, AHCTF1 / RFU, TFRC / Fold change vs veh, TFRC / RFU, ZDHHC17 / Fold change vs veh, ZDHHC17 / RFU, NOM1 / Fold change vs veh, NOM1 / RFU, ARL8B / Fold change vs veh, ARL8B / RFU, ZBTB11 / Fold change vs veh, ZBTB11 / RFU, TAMM41 / Fold change vs veh, TAMM41 / RFU, KIAA1704 /// LOC100996395 / Fold change vs veh, KIAA1704 /// LOC100996395 / RFU, ING1 / Fold change vs veh, ING1 / RFU, TRMT61B / Fold change vs veh, TRMT61B / RFU, FUBP3 / Fold change vs veh, FUBP3 / RFU, TP53 / Fold change vs veh, TP53 / RFU, TNKS2 / Fold change vs veh, TNKS2 / RFU, ZFP14 / Fold change vs veh, ZFP14 / RFU, ACTR2 / Fold change vs veh, ACTR2 / RFU, PPP3R1 / Fold change vs veh, PPP3R1 / RFU, PIK3R1 / Fold change vs veh, PIK3R1 / RFU, HNRNPA1 / Fold change vs veh, HNRNPA1 / RFU, RNF170 / Fold change vs veh, RNF170 / RFU, ZNF28 / Fold change vs veh, ZNF28 / RFU, RNGTT / Fold change vs veh, RNGTT / RFU, OGT / Fold change vs veh, OGT / RFU, BRD1 / Fold change vs veh, BRD1 / RFU, MARS / Fold change vs veh, MARS / RFU, ZNF655 / Fold change vs veh, ZNF655 / RFU, FAHD1 / Fold change vs veh, FAHD1 / RFU, BDP1 / Fold change vs veh, BDP1 / RFU, LRRCC1 / Fold change vs veh, LRRCC1 / RFU, ARID1A / Fold change vs veh, ARID1A / RFU, ZNF146 / Fold change vs veh, ZNF146 / RFU, ZNF330 / Fold change vs veh, ZNF330 / RFU, GPN3 / Fold change vs veh, GPN3 / RFU, C9orf123 / Fold change vs veh, C9orf123 / RFU, N4BP2L2 / Fold change vs veh, N4BP2L2 / RFU, ARFIP1 / Fold change vs veh, ARFIP1 / RFU, FAM179B / Fold change vs veh, FAM179B / RFU, BCL10 / Fold change vs veh, BCL10 / RFU, UHRF1BP1L / Fold change vs veh, UHRF1BP1L / RFU, BET1 / Fold change vs veh, BET1 / RFU, CNOT2 / Fold change vs veh, CNOT2 / RFU, ZNF268 / Fold change vs veh, ZNF268 / Fold change vs veh, ZNF507 / RFU, DGCR2 / Fold change vs veh, DGCR2 / RFU, WDSUB1 / Fold change vs veh, WDSUB1 / Fold change vs veh, HSP90B1 /// MIR3652 / RFU, ADSS / Fold change vs veh, ADSS / RFU, GK / Fold change vs veh, GK / RFU, ZNF148 / Fold change vs veh, ZNF148 / RFU, TAF9 / Fold change vs veh, TAF9 / RFU, SLC1A5 / Fold change vs veh, SLC1A5 / RFU, SLMO2 / Fold change vs veh, SLMO2 / RFU, ABCC4 / Fold change vs veh, ABCC4 / RFU, LOC101060439 /// RAP1B / Fold change vs veh, LOC101060439 /// RAP1B / RFU, RFX7 / Fold change vs veh, RFX7 / RFU, GTPBP10 / Fold change vs veh, GTPBP10 / RFU, CNEP1R1 / Fold change vs veh, CNEP1R1 / RFU, BIVM-ERCC5 /// ERCC5 / Fold change vs veh, BIVM-ERCC5 /// ERCC5 / RFU, ILF3 / Fold change vs veh, ILF3 / RFU 11762660_at / Fold change /veh 11762660_at / RFU VCAN (11757783_s_at) / Fold change /veh VCAN (11757783_s_at) / RFU DDX43 (11728927_at) / Fold change /veh DDX43 (11728927_at) / RFU KRT8 (11758188_x_at) / Fold change /veh KRT8 (11758188_x_at) / RFU NKD1 (11759106_at) / Fold change /veh NKD1 (11759106_at) / RFU SRD5A1 (11742802_a_at) / Fold change /veh SRD5A1 (11742802_a_at) / RFU TPSAB1 /// TPSB2 (11721975_s_at) / Fold change /veh TPSAB1 /// TPSB2 (11721975_s_at) / RFU GSTM3 (11746129_a_at) / Fold change /veh GSTM3 (11746129_a_at) / RFU IL23R (11737362_x_at) / Fold change /veh IL23R (11737362_x_at) / RFU TMEM51 (11727254_a_at) / Fold change /veh TMEM51 (11727254_a_at) / RFU PIWIL2 (11732686_x_at) / Fold change /veh PIWIL2 (11732686_x_at) / RFU ORM1 (11744905_x_at) / Fold change /veh ORM1 (11744905_x_at) / RFU CCDC152 (11743942_at) / Fold change /veh CCDC152 (11743942_at) / RFU ECM1 (11717891_a_at) / Fold change /veh ECM1 (11717891_a_at) / RFU IL23R (11748794_a_at) / Fold change /veh IL23R (11748794_a_at) / RFU TNFAIP8L3 (11732012_x_at) / Fold change /veh TNFAIP8L3 (11732012_x_at) / RFU MBOAT4 (11741988_at) / Fold change /veh MBOAT4 (11741988_at) / RFU 11764193_at / Fold change /veh 11764193_at / RFU TMEM53 (11763286_at) / Fold change /veh TMEM53 (11763286_at) / RFU MAGEB2 (11727129_at) / Fold change /veh MAGEB2 (11727129_at) / RFU TMEM200A (11744735_a_at) / Fold change /veh TMEM200A (11744735_a_at) / RFU CCDC152 (11751479_a_at) / Fold change /veh CCDC152 (11751479_a_at) / RFU FAM211A (11726209_a_at) / Fold change /veh FAM211A (11726209_a_at) / RFU RGS16 (11746705_a_at) / Fold change /veh RGS16 (11746705_a_at) / RFU VCAN (11755009_s_at) / Fold change /veh VCAN (11755009_s_at) / RFU RHOB (11743442_s_at) / Fold change /veh RHOB (11743442_s_at) / RFU RGS16 (11720943_a_at) / Fold change /veh RGS16 (11720943_a_at) / RFU RGS16 (11720944_at) / Fold change /veh RGS16 (11720944_at) / RFU, VPS4B / Fold change vs veh, VPS4B / RFU, CREB1 / Fold change vs veh, CREB1 / RFU, DNAJC13 / Fold change vs veh, DNAJC13 / RFU, GNAQ / Fold change vs veh, GNAQ / RFU, CDK5R1 / Fold change vs veh, CDK5R1 / RFU, ZRANB3 / Fold change vs veh, ZRANB3 / RFU, CUL4A / Fold change vs veh, CUL4A / RFU, CCNY / Fold change vs veh, CCNY / RFU, UFL1 / Fold change vs veh, UFL1 / RFU, COG3 / Fold change vs veh, COG3 / RFU, DIAPH2 / Fold change vs veh, DIAPH2 / RFU, SKA2 / Fold change vs veh, SKA2 / RFU, AFF3 / Fold change vs veh, AFF3 / RFU, LMF1 / Fold change vs veh, LMF1 / RFU, IPO11 / Fold change vs veh, IPO11 / RFU, DFFB / Fold change vs veh, DFFB / RFU, FOXP1 / Fold change vs veh, FOXP1 / RFU, CARD8 / Fold change vs veh, CARD8 / RFU, STRN3 / Fold change vs veh, STRN3 / RFU, ADK / Fold change vs veh, ADK / RFU, RASSF2 / Fold change vs veh, RASSF2 / RFU, WIPF1 / Fold change vs veh, WIPF1 / RFU, LARP1B / Fold change vs veh, LARP1B / RFU, RASA1 / Fold change vs veh, RASA1 / RFU, RB1 / Fold change vs veh, RB1 / RFU, PPFIA1 / Fold change vs veh, PPFIA1 / RFU, MAT2A / Fold change vs veh, MAT2A / RFU, CCT5 / Fold change vs veh, CCT5 / RFU, WDR92 / Fold change vs veh, WDR92 / RFU, CUX1 / Fold change vs veh, CUX1 / RFU, TTC7A / Fold change vs veh, TTC7A / RFU, TMEM135 / Fold change vs veh, TMEM135 / RFU, DEPTOR / Fold change vs veh, DEPTOR / RFU, CPM / Fold change vs veh, CPM / RFU, DNAJB6 / Fold change vs veh, DNAJB6 / RFU, CACNA2D3 / Fold change vs veh, CACNA2D3 / RFU, DTX4 / Fold change vs veh, DTX4 / RFU, TFCP2 / Fold change vs veh, TFCP2 / RFU, GMCL1 /// GMCL1P1 / Fold change vs veh, GMCL1 /// GMCL1P1 / RFU, AEBP2 / Fold change vs veh, AEBP2 / RFU, SNHG1 /// SNORD22 /// SNORD25 /// SNORD26 /// SNORD27 /// SNORD28 /// SNORD29 /// SNORD31 / Fold change vs veh, SNHG1 /// SNORD22 /// SNORD25 /// SNORD26 /// SNORD27 /// SNORD28 /// SNORD29 /// SNORD31 / Fold change (Aza/veh), C12orf56 (ProbeSet 11735607_a_at) / Fold change (ACY-1035/veh), C12orf56 (ProbeSet 11735607_a_at) / Fold change (Aza/veh), FGFR1OP (ProbeSet 11751329_s_at) / Fold change (ACY-1035/veh), FGFR1OP (ProbeSet 11751329_s_at) / Fold change (Aza/veh), VPS36 (ProbeSet 11739960_a_at) / Fold change (ACY-1035/veh), VPS36 (ProbeSet 11739960_a_at) / RFU SYPL1 (11715823_x_at) / Fold change /veh SYPL1 (11715823_x_at) / RFU IGFBP7 (11715501_s_at) / Fold change /veh IGFBP7 (11715501_s_at) / RFU REEP3 (11722064_at) / Fold change /veh REEP3 (11722064_at) / RFU IGLL1 (11728026_x_at) / Fold change /veh IGLL1 (11728026_x_at): dose or concentration left out as unconfirmed. As to conditions: MV-4-11 cells, 48 hours.

Turning to `Nc1ncn([C@@H]2O[C@H](CO)[C@@H](O)[C@H]2O)c(=O)n1` [azacitidine], the “Fold change /veh TMCC2 (11721928_a_at)” value is 0.97.
